Assay results published in patent publication US20240199546A1, “INHIBITORS OF SOLUTE CARRIER FAMILY 6A MEMBER 19 (SLC6A19) AND METHODS OF USE THEREOF” (Maze Therapeutics, Inc., priority 2022, published 2024).

Molecular target: T1, human SLC6A19 and TMEM27 (Homo sapiens, UniProt Q695T7)
T1 construct: expressed in transfected cells
T1 sequence (Q695T7 1-634): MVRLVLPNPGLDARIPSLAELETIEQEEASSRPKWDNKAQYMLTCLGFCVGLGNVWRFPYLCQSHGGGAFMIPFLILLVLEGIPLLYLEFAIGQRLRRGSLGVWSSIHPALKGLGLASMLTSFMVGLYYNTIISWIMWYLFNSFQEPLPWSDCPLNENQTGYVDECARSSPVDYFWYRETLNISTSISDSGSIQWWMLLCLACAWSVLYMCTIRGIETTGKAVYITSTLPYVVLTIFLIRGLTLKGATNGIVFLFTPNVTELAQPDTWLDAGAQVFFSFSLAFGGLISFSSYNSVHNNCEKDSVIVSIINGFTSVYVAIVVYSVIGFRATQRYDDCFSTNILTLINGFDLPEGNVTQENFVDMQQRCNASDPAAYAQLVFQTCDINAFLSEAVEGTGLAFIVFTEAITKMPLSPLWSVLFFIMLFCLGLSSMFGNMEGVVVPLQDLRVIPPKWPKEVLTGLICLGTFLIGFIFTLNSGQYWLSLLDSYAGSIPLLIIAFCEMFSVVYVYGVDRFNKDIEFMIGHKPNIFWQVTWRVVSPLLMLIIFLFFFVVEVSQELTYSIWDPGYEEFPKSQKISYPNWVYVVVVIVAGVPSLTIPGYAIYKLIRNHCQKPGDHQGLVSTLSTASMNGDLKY
T1 sequence (Q9HBJ8 15-222 partner): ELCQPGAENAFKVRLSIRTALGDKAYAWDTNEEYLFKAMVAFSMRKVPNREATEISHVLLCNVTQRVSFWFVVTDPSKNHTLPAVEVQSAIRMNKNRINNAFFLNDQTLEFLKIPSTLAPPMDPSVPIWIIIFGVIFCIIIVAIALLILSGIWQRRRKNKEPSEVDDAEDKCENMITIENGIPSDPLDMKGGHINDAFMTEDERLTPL
Test: Radiolabelled (3H) leucine uptake in CHO cells with doxycycline-inducible expression of human SLC6A19 and TMEM27 (Example B-1)
Type: cell-based
Conditions: CHO cells with doxycycline-inducible expression of human SLC6A19 and TMEM27, read-out: SLC6A19_Radioligand Uptake Assay IC50
In short: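 CHO cells were induced with doxycycline for 18 h at 37 °C, washed in HBSS, then exposed to compounds for 1 h: 8-point, 3-fold dilutions in duplicate, 0.5% DMSO final. Uptake measured by scintillation counting after 2 h shaking. Activity normalized with positive control as 0% and DMSO as 100%.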

Compound: COCC(=O)NCc1cc2cc(Cl)c(OCc3cc(C)no3)cc2[nH]1 [Compound 272, N-((5-chloro-6-((3-methylisoxazol-5-yl)methoxy)-1H-indol-2-yl)methyl)-2-methoxyacetamide]
- IC50: 78.9 nM

Compound: Cc1cc(COc2cc3[nH]c(CNC(=O)C4(C)COC4)cc3cc2Cl)on1 [Compound 273, N-((5-chloro-6-((3-methylisoxazol-5-yl)methoxy)-1H-indol-2-yl)methyl)-3-methyloxetane-3-carboxamide]
- IC50: 567 nM

Compound: Cc1cc(COc2cc3[nH]c(CNC(=O)C4COC4)cc3cc2Cl)on1 [Compound 274, N-((5-chloro-6-((3-methylisoxazol-5-yl)methoxy)-1H-indol-2-yl)methyl)oxetane-3-carboxamide]
- IC50: 175 nM

Compound: Cc1cc(COc2cc3[nH]c(CNC(=O)C4(C#N)COC4)cc3cc2Cl)on1 [Compound 275, N-((5-chloro-6-((3-methylisoxazol-5-yl)methoxy)-1H-indol-2-yl)methyl)-3-cyanooxetane-3-carboxamide]
- IC50: 350 nM

Compound: Cc1cc(COc2cc3[nH]c(CNC(=O)[C@@H]4CCO4)cc3cc2Cl)on1 [Compound 276, (S)-N-((5-chloro-6-((3-methylisoxazol-5-yl)methoxy)-1H-indol-2-yl)methyl)oxetane-2-carboxamide]
- IC50: 94 nM

Compound: CC1(C(=O)NCc2cc3cc(Cl)c(OCc4cscn4)cc3[nH]2)COC1 [Compound 277, N-((5-chloro-6-(thiazol-4-ylmethoxy)-1H-indol-2-yl)methyl)-3-methyloxetane-3-carboxamide]
- IC50: 279 nM

Compound: Cc1cc(COc2cc3[nH]c(CNC(=O)C4CCO4)cc3cc2Cl)on1 (centres unmarked) [Compound 278, N-((5-chloro-6-((3-methylisoxazol-5-yl)methoxy)-1H-indol-2-yl)methyl)oxetane-2-carboxamide]
- IC50: 108 nM

Compound: COCC1(C(=O)NCc2cc3cc(Cl)c(OCc4cscn4)cc3[nH]2)CC1 [Compound 279, N-((5-chloro-6-(thiazol-4-ylmethoxy)-1H-indol-2-yl)methyl)-1-(methoxymethyl)cyclopropane-1-carboxamide]
- IC50: 383 nM

Compound: C[C@H](O)C(=O)NCc1cc2cc(F)c(OCc3cscn3)cc2[nH]1 [Compound 281, (S)-N-((5-fluoro-6-(thiazol-4-ylmethoxy)-1H-indol-2-yl)methyl)-2-hydroxypropanamide]
- IC50: 2280 nM

Compound: C[C@@H](O)C(=O)NCc1cc2cc(F)c(OCc3cscn3)cc2[nH]1 [Compound 282, (R)-N-((5-fluoro-6-(thiazol-4-ylmethoxy)-1H-indol-2-yl)methyl)-2-hydroxypropanamide]
- IC50: 2670 nM

Compound: Cc1cc(COc2cc3[nH]c(CNC(=O)[C@@H](C)O)cc3cc2F)on1 [Compound 283, (R)-N-((5-fluoro-6-((3-methylisoxazol-5-yl)methoxy)-1H-indol-2-yl)methyl)-2-hydroxypropanamide]
- IC50: > 8950 nM

Compound: Cc1cc(COc2cc3[nH]c(CNC(=O)[C@H](C)O)cc3cc2Cl)on1 [Compound 284, (S)-N-((5-chloro-6-((3-methylisoxazol-5-yl)methoxy)-1H-indol-2-yl)methyl)-2-hydroxypropanamide]
- IC50: 172 nM

Compound: C[C@H](O)C(=O)NCc1cc2cc(Cl)c(OCc3cscn3)cc2[nH]1 [Compound 285, (S)-N-((5-chloro-6-(thiazol-4-ylmethoxy)-1H-indol-2-yl)methyl)-2-hydroxypropanamide]
- IC50: 322 nM

Compound: Cc1cc(COc2cc3[nH]c(CNC(=O)C[C@H](C)O)cc3cc2Cl)on1 [Compound 286, (S)-N-((5-chloro-6-((3-methylisoxazol-5-yl)methoxy)-1H-indol-2-yl)methyl)-3-hydroxybutanamide]
- IC50: 910 nM

Compound: Cc1cc(COc2cc3[nH]c(CNC(=O)C[C@@H](C)O)cc3cc2Cl)on1 [Compound 287, (R)-N-((5-chloro-6-((3-methylisoxazol-5-yl)methoxy)-1H-indol-2-yl)methyl)-3-hydroxybutanamide]
- IC50: 2400 nM

Compound: Cc1cc(COc2cc3[nH]c(CNC(=O)CC4(C)COC4)cc3cc2Cl)on1 [Compound 288, N-((5-chloro-6-((3-methylisoxazol-5-yl)methoxy)-1H-indol-2-yl)methyl)-2-(3-methyloxetan-3-yl)acetamide]
- IC50: 3260 nM

Compound: Cc1cc(COc2cc3[nH]c(CNC(=O)C[C@@H]4CCOC4)cc3cc2Cl)on1 [Compound 289, (S)-N-((5-chloro-6-((3-methylisoxazol-5-yl)methoxy)-1H-indol-2-yl)methyl)-2-(tetrahydrofuran-3-yl)acetamide]
- IC50: 2020 nM

Compound: Cc1cc(COc2cc3[nH]c(CNC(=O)C[C@H]4CCOC4)cc3cc2Cl)on1 [Compound 290, (R)-N-((5-chloro-6-((3-methylisoxazol-5-yl)methoxy)-1H-indol-2-yl)methyl)-2-(tetrahydrofuran-3-yl)acetamide]
- IC50: 5290 nM

Compound: CO[C@@H](C)C(=O)NCc1cc2cc(Cl)c(OCc3cscn3)cc2[nH]1 [Compound 291, (S)-N-((5-chloro-6-(thiazol-4-ylmethoxy)-1H-indol-2-yl)methyl)-2-methoxypropanamide]
- IC50: 197 nM

Compound: CO[C@H](C)C(=O)NCc1cc2cc(Cl)c(OCc3cscn3)cc2[nH]1 [Compound 292, (R)-N-((5-chloro-6-(thiazol-4-ylmethoxy)-1H-indol-2-yl)methyl)-2-methoxypropanamide]
- IC50: 666 nM

Compound: O=C(NCc1cc2cc(Cl)c(OCc3cscn3)cc2[nH]1)[C@@H]1CCCO1 [Compound 293, (S)-N-((5-chloro-6-(thiazol-4-ylmethoxy)-1H-indol-2-yl)methyl)tetrahydrofuran-2-carboxamide]
- IC50: 500 nM

Compound: Cc1cc(COc2cc3[nH]c(CNC(=O)COC(F)F)cc3cc2Cl)on1 [Compound 294, N-((5-chloro-6-((3-methylisoxazol-5-yl)methoxy)-1H-indol-2-yl)methyl)-2-(difluoromethoxy)acetamide]
- IC50: 135 nM

Compound: Cc1cc(COc2cc3[nH]c(CNC(=O)C4(CO)CCCO4)cc3cc2Cl)on1 (centres unmarked) [Compound 295, N-((5-chloro-6-((3-methylisoxazol-5-yl)methoxy)-1H-indol-2-yl)methyl)-2-(hydroxymethyl)tetrahydrofuran-2-carboxamide]
- IC50: 1610 nM

Compound: Cc1cc(COc2cc3[nH]c(CNC(=O)C45CCC(CC4)O5)cc3cc2Cl)on1 [Compound 296, N-((5-chloro-6-((3-methylisoxazol-5-yl)methoxy)-1H-indol-2-yl)methyl)-7-oxabicyclo[2.2.1]heptane-1-carboxamide]
- IC50: 976 nM

Compound: Cc1cc(COc2cc3[nH]c(CNC(=O)C45COC(C4)C5)cc3cc2Cl)on1 [Compound 298, N-((5-chloro-6-((3-methylisoxazol-5-yl)methoxy)-1H-indol-2-yl)methyl)-2-oxabicyclo[2.1.1]hexane-4-carboxamide]
- IC50: 921 nM

Compound: COCCOCC(=O)NCc1cc2cc(Cl)c(OCc3cc(C)no3)cc2[nH]1 [Compound 299, N-((5-chloro-6-((3-methylisoxazol-5-yl)methoxy)-1H-indol-2-yl)methyl)-2-(2-methoxyethoxy)acetamide]
- IC50: > 9060 nM

Compound: Cc1cc(COc2cc3[nH]c(CNC(=O)C45COCC4C5)cc3cc2Cl)on1 (centres unmarked) [Compound 300, N-((5-chloro-6-((3-methylisoxazol-5-yl)methoxy)-1H-indol-2-yl)methyl)-3-oxabicyclo[3.1.0]hexane-1-carboxamide]
- IC50: 321 nM

Compound: Cc1cc(COc2cc3[nH]c(CNC(=O)C45CC(CO4)C5)cc3cc2Cl)on1 [Compound 301, N-((5-chloro-6-((3-methylisoxazol-5-yl)methoxy)-1H-indol-2-yl)methyl)-2-oxabicyclo[2.1.1]hexane-1-carboxamide]
- IC50: 327 nM

Compound: Cc1cc(COc2cc3[nH]c(CNC(=O)[C@H]4COCCN4C)cc3cc2Cl)on1 [Compound 302, (R)-N-((5-chloro-6-((3-methylisoxazol-5-yl)methoxy)-1H-indol-2-yl)methyl)-4-methylmorpholine-3-carboxamide]
- IC50: 7110 nM

Compound: Cc1cc(COc2cc3[nH]c(CNC(=O)[C@@H]4COCCO4)cc3cc2Cl)on1 [Compound 303, (S)-N-((5-chloro-6-((3-methylisoxazol-5-yl)methoxy)-1H-indol-2-yl)methyl)-1,4-dioxane-2-carboxamide]
- IC50: 814 nM

Compound: Cc1cc(COc2cc3[nH]c(CNC(=O)[C@H]4COCCO4)cc3cc2Cl)on1 [Compound 304, (R)-N-((5-chloro-6-((3-methylisoxazol-5-yl)methoxy)-1H-indol-2-yl)methyl)-1,4-dioxane-2-carboxamide]
- IC50: 718 nM

Compound: Cc1cc(COc2cc3[nH]c(CNC(=O)C4(F)CCOC4)cc3cc2Cl)on1 (centres unmarked) [Compound 305, N-((5-chloro-6-((3-methylisoxazol-5-yl)methoxy)-1H-indol-2-yl)methyl)-3-fluorotetrahydrofuran-3-carboxamide]
- IC50: 209 nM
